Columns and labels:
[1] = Fluorescence response to NO in buffered aqueous solution
Protocol: FIG. 5 depicts the fluorescence response of Cu(FL5) to NO. Fluorescence emission spectra (λex=503 nm) of a deoxygenated 1 μM solution of Cu(FL5) in buffered solution (50 mM PIPES, pH 7.0, 100 mM KCl) before (dashed line), immediately, 1, 2 and 5 min after (solid lines) admission of 1300 equiv of NO (g) at 37° C.
The fluorescence of a 1 μM FL5 solution was diminished by 18±3% upon introduction of an equimolar quantity of CuCl2 at 37° C. Addition of excess NO to a buffered aqueous Cu(FL5) solution led to an immediate 11.2±1.5-fold increase in fluorescence (FIG. 5). […] The lower detection limit for NO is 5 nM.
A commercially available NO probe, DAF-2 (o-diaminofluorescein), was used for comparison with Cu(FL5). The fluorescence of DAF-2 is unchanged in the presence of NO and the absence of O2 over a period of 1 h.
As depicted in FIG. 4, NO detection by Cu(FL5) occurs, formally, by nitric oxide-induced reduction of Cu(II) to Cu(I), forming NO^+, which nitrosates the ligand with concomitant dissociation from copper and fluorescence turn-on. The mechanism of turn-on emission of Cu(FL5) by NO was investigated by EPR, UV-vis, NMR and fluorescence spectroscopy and by liquid chromatography-mass spectrometry (LC-MS, low resolution MS).

[2] = test system: SK-N-SH human neuroblastoma cells; experiment: Detection of NO produced by cNOS in SK-N-SH cells (fluorescence imaging); format: cell-based; settings: estradiol-stimulated neuroblastoma cells
Protocol: FIG. 7 illustrates Cu(FL5) detection of NO produced by cNOS. (a) NO detection in SK-N-SH cells by Cu(FL5). Left to right: 25 min incubation of Cu(FL5) (1 μM) and 5, 10, 15, 25 min after co-treatment of Cu(FL5) (1 μM) and 17β-estradiol (100 nM). Images were taken with a Nikon Eclipse TS100 microscope after removing the DMEM media and washing the cells with PBS. Top: fluorescence images; bottom: phase contrast images. (b) Fluorescence intensity (F(t)/FCu(FL5)) from a was plotted against incubation time. (c) NO production with or without of L-NNA. Right: NO detection in cells after 10 min co-incubation of Cu(FL5) (1 μM) and 17β-estradiol (100 nM). Left: NO detection in cells pre-treated with L-NNA for 1 h before addition of Cu(FL5) and 17β-estradiol.
We investigated the ability of Cu(FL5) to detect NO produced in SK-N-SH human neuroblastoma cells under physiological conditions, since constitutive NO synthase (“cNOS”) in this cell line can be activated by estrogen to produce NO. Estrogen administration leads to an increase in the cytosolic Ca(II) concentration that alters the structure of calmodulin, which in turn activates cNOS. The NO-dependent fluorescence response, monitored after simultaneous administration of 17β-estradiol (100 nM) and Cu(FL5) (1 μM) to the cells, was completed within 5 min with a 4.0±0.6-fold increase in fluorescence (FIGS. 5a and b). […] As another control, HeLa cells were co-treated with 17β-estradiol (100 nM) and Cu(FL5) (1 μM).
Raw 264.7, SK-N-SH, and HeLa cells were purchased from the American Type Culture Collection (ATCC). All three cell lines were maintained in Dulbecco's modified Eagles' media (DMEM) (GibcoBRL) containing 10% (v/v) heat-inactivated fetal bovine serum (FBS) (HyClone), 1 mM sodium pyruvate (Sigma), 100 units/ml penicillin, 100 μg/ml streptomycin (Invitrogen), and 0.1 mM nonessential amino acid solution for minimal essential medium (Sigma). All cells were grown at 37° C. in a humidified atmosphere of 10% CO2. A nitrite assay was performed with Griess reagents (Promega) on Raw 264.7 cells grown in DMEM free of phenol red. Calcium sensor fluo-4 AM was purchased from Invitrogen. MTT [3-(4,5-dimethylthiazol-2-yl)-2,5-diphenyltetrazolium bromide] (Sigma-Aldrich) assay was described in Supplementary information. The expression of iNOS in Raw 264.7 cells was analyzed by Western blot on the extracts of cells stimulated by LPS and INF-γ. The protein was silenced by short hairpin RNA-induced RNAi and the resulting cell lines were used in fluorescence imaging by Cu(FL5).

[3] = Stability of nitrosated ligand at pH 7.0; format: physicochemical
Source text: High resolution MS of FL5-^14NO and FL-^15NO were also obtained, showing m/z=600.0729 for FL5-^14NO and 601.0736 for FL5-^15NO, corresponding to [FL5+NO−H+Cl]^− (calcd. m/z 600.0729 and 601.0700).

[4] = Quantum yield; format: physicochemical
Source text: Quantum yield may be obtained by comparison of the integrated area of the corrected emission spectrum of the sample with that of a reference solution. A preferred reference solution is a solution of fluorescein in 0.1 N NaOH, quantum efficiency 0.95. The concentration of the reference is adjusted to match the absorbance of the test sample. The quantum yields may be calculated using the following equation.
Upon addition of excess NO, a 499 nm peak in the UV-vis spectrum of Cu(FL5) in pH 7.0 buffered solution red-shifted back to the λmax characteristic of FL5 or the synthetic FL5−NO compound (504 nm), which differs from the band formed in the reaction of FL5 with 1 equivalent of Cu(I) added as [Cu(CH3CN)4](BF4) (506 nm). […] In addition, the spectrum of the NO reaction solution closely resembled that of the monoanionic fluorescein formed by lowering the pH from 7.0 to 5.0. […] These values are in the range previously reported for N-nitrosamines. The presence of two separate chemical shifts might arise from different isomers in solution, the Δδ of 2.29 being similar to that of previously reported of N-nitrosamines. […] Lastly, FL5−NO is brighter than FL5 or Cu(FL5), the respective quantum yields being ΦFL-NO=0.58±0.02 and ΦFL=0.077±0.002.

o-diaminofluorescein [DAF-2, reference compound]
fluorescence in the presence of NO when O2 is present [1]: turn-on fluorescence
fluorescence in the presence of NO and the absence of O2 ([1]; over a period of 1 h): unchanged

CC(=O)Oc1ccc2c(c1)Oc1cc(OC(C)=O)ccc1C21OC(=O)c2cc(N)c(N)cc21 [DAF-2 DA, o-diaminofluorescein diacetate, reference compound]
fluorescence increase of treated cells 30 min after activation of cNOS [2]: only a slight fluorescence increase

Cc1ccc2cccc(N(Cc3c(O)ccc4c(-c5ccccc5C(=O)O)c5cc(Cl)c(=O)cc-5oc34)N=O)c2n1 [FL5−NO, 2-{2-chloro-6-hydroxy-5-[((2-methylquinolin-8-yl)(nitroso)amino)-methyl]-3-oxo-3H-xanthen-9-yl}-benzoic acid]
stability [3]: stable for several days
quantum yield Φ [4]: 0.58±0.02

Source: patent US7494821B2, “Fluorescein based sensors for tracking nitric oxide in live cells” (Massachusetts Institute of Technology, priority 2005, dated 2009)
